Data: the CheMixHub viscosity set

Assay: xn = mol fraction of the nth substance listed

ClC=C(Cl)Cl + O=C1CCCCC1
viscosity [mPa·s], 101.33 kPa
Details	x1 = 0.1122	x1 = 0.2059	x1 = 0.3057	x1 = 0.4263	x1 = 0.4957	x1 = 0.4987	x1 = 0.6177	x1 = 0.7064	x1 = 0.7889	x1 = 0.9152
298.15 K	1.589	1.365	1.215	1.069	–	0.988	0.883	0.803	0.739	0.666
308.15 K	1.339	1.174	1.062	0.944	0.878	–	0.789	0.723	0.68	0.618
318.15 K	1.158	1.034	0.933	0.835	0.791	–	0.719	0.672	0.633	0.582

CCCCCCCC[P+](CC)(CC)CC.N#Cc1ccc[n-]1 + OCC(O)CO
viscosity [mPa·s], 100 kPa
Details	293.15 K	298.15 K	303.15 K	313.15 K
x1 = 0.031	1533	966	621	248
x1 = 0.071	1550	996	617	248
x1 = 0.109	1457	916	581	228
x1 = 0.16	1330	825	540	240
x1 = 0.222	1133	699	428	198
x1 = 0.297	903	584	405	187
x1 = 0.393	672	437	289	150
x1 = 0.457	608	408	274	138
x1 = 0.532	545	368	251	134
x1 = 0.615	519	357	245	129
x1 = 0.742	434	291	197	105
x1 = 0.833	372	252	167	89

CCCCCCCC[P+](CC)(CC)CC.N#Cc1ccc[n-]1 + OCCN(CCO)CCO
viscosity [mPa·s], 100 kPa
Details	293.15 K	298.15 K	303.15 K	313.15 K
x1 = 0.014	950	622	405	185
x1 = 0.025	986	640	415	190
x1 = 0.039	1004	657	426	193
x1 = 0.049	1011	660	426	193
x1 = 0.104	939	596	380	175
x1 = 0.167	824	539	351	163
x1 = 0.223	812	533	352	166
x1 = 0.315	722	474	314	152
x1 = 0.508	619	422	284	140
x1 = 0.647	600	406	273	136
x1 = 0.809	438	301	202	101

C1COCCN1 + OCCO
viscosity [mPa·s], 101 kPa
Details	293.15 K	303.15 K	313.15 K	323.15 K
x1 = 0.06476	23.01	–	–	–
x1 = 0.06828	–	–	9.851	–
x1 = 0.07	23.22	15.77	9.66	7
x1 = 0.2	24.69	16.33	10.32	7.69
x1 = 0.2273	24.37	–	–	–
x1 = 0.2296	–	–	10.49	–
x1 = 0.4	21.35	14.19	9.34	7.13
x1 = 0.4103	20.98	–	–	–
x1 = 0.4144	–	–	9.259	–
x1 = 0.6	11.83	8.07	6.02	4.41
x1 = 0.6173	–	–	6.339	–
x1 = 0.6201	11.78	–	–	–
x1 = 0.8601	4.454	–	–	–
x1 = 0.8629	–	–	2.391	–
x1 = 0.9	3.94	2.92	2.24	1.72

CC(O)CO (stereo unspecified) + OCCO
viscosity [mPa·s], 101 kPa
Details	x2 = 0.1212	x2 = 0.2346	x2 = 0.3459	x2 = 0.4339	x2 = 0.5501	x2 = 0.631	x2 = 0.7481	x2 = 0.8299	x2 = 0.9064
298.15 K	41.61	38.96	36.05	33.67	30.55	28.37	25.1	22.65	20.25
303.15 K	32.39	30.43	28.19	26.35	23.95	22.28	19.75	17.84	15.99
308.15 K	24.28	22.97	21.42	20.15	18.48	17.31	15.55	14.2	12.9

[Cl-].[Na+] + OCCO
101 kPa, x1 = 0.0588
Details	viscosity [mPa·s]
303 K	20.88
313 K	14.11
323 K	9.987

[Al] + [Ga]
323 K, 101 kPa
Details	viscosity [mPa·s]
x1 = 0.021	1.529
x1 = 0.1	1.638
